# According to PubChem BioAssay (NCI):
#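 96-well plates; 48 h exposure; 5 concentrations. Endpoints by linear interpolation between flanking doses. Not reached: highest tested concentration assigned. At the TGI there is no net growth.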
# Experiments:
# Assay in all cases: growth of human tumour cells (NCI), 48 h
# SN12C renal = test system: SN12C renal
# SK-MEL-5 melanoma = test system: SK-MEL-5 melanoma
# KM12 colon = test system: KM12 colon
# UACC-62 melanoma = test system: UACC-62 melanoma
# OVCAR-5 ovarian = test system: OVCAR-5 ovarian
# M14 melanoma = test system: M14 melanoma
# NCI-H460 lung = test system: NCI-H460 lung
# TK-10 renal = test system: TK-10 renal
# UO-31 renal = test system: UO-31 renal
# SW-620 colon = test system: SW-620 colon
# OVCAR-8 ovarian = test system: OVCAR-8 ovarian
# HOP-62 NSCLC = test system: HOP-62 NSCLC
# SK-MEL-28 melanoma = test system: SK-MEL-28 melanoma
# LOX IMVI melanoma = test system: LOX IMVI melanoma
# CAKI-1 renal = test system: CAKI-1 renal
# NCI-H226 lung = test system: NCI-H226 lung
# CCRF-CEM leukemia = test system: CCRF-CEM leukemia
# ACHN renal = test system: ACHN renal
# LXFL 529 NSCLC = test system: LXFL 529 NSCLC
# HCC-2998 colon = test system: HCC-2998 colon
# EKVX NSCLC = test system: EKVX NSCLC
# SNB-19 CNS = test system: SNB-19 CNS
# SK-OV-3 ovarian = test system: SK-OV-3 ovarian
# SF-539 CNS = test system: SF-539 CNS
# SF-268 CNS = test system: SF-268 CNS
# SF-295 CNS = test system: SF-295 CNS
# RXF 393 renal = test system: RXF 393 renal
# UACC-257 melanoma = test system: UACC-257 melanoma
# SK-MEL-2 melanoma = test system: SK-MEL-2 melanoma
# U251 CNS = test system: U251 CNS
# COLO 205 colon = test system: COLO 205 colon
# DLD-1 colon = test system: DLD-1 colon
# HCT-15 colon = test system: HCT-15 colon
# OVCAR-4 ovarian = test system: OVCAR-4 ovarian
# OVCAR-3 ovarian = test system: OVCAR-3 ovarian
# SNB-78 CNS = test system: SNB-78 CNS
# NCI-H522 lung = test system: NCI-H522 lung
# 786-0 renal = test system: 786-0 renal
# RPMI-8226 leukemia = test system: RPMI-8226 leukemia
# KM20L2 colon = test system: KM20L2 colon
# HOP-92 NSCLC = test system: HOP-92 NSCLC
# MOLT-4 leukemia = test system: MOLT-4 leukemia
# XF 498 CNS = test system: XF 498 CNS
# M19-MEL melanoma = test system: M19-MEL melanoma
# HL-60(TB) leukemia = test system: HL-60(TB) leukemia
# A498 renal = test system: A498 renal
# HT29 colon = test system: HT29 colon
# IGROV1 ovarian = test system: IGROV1 ovarian
# K-562 leukemia = test system: K-562 leukemia
# SR leukemia = test system: SR leukemia
# RXF-631 renal = test system: RXF-631 renal
# A549 NSCLC = test system: A549 NSCLC
# NCI-H23 lung = test system: NCI-H23 lung
# SNB-75 CNS = test system: SNB-75 CNS
# MALME-3M melanoma = test system: MALME-3M melanoma
smiles,measurement,setting,value
CN(C)c1cccc(-c2cc(=O)c3cc4c(cc3[nH]2)OCO4)c1,TGI,SN12C renal,> 100 µM
same,TGI,SK-MEL-5 melanoma,2.83 µM
same,TGI,KM12 colon,1.46 µM
same,TGI,UACC-62 melanoma,> 100 µM
same,TGI,OVCAR-5 ovarian,0.92 µM
same,TGI,M14 melanoma,0.461 µM
same,TGI,NCI-H460 lung,0.987 µM
same,TGI,TK-10 renal,> 100 µM
same,TGI,UO-31 renal,> 100 µM
same,TGI,SW-620 colon,> 100 µM
same,TGI,OVCAR-8 ovarian,3.65 µM
same,TGI,HOP-62 NSCLC,> 73.9 µM
same,TGI,SK-MEL-28 melanoma,> 100 µM
same,TGI,LOX IMVI melanoma,> 100 µM
same,TGI,CAKI-1 renal,> 100 µM
same,TGI,NCI-H226 lung,1.32 µM
same,TGI,CCRF-CEM leukemia,> 100 µM
same,TGI,ACHN renal,> 37 µM
same,TGI,LXFL 529 NSCLC,> 48.4 µM
same,TGI,HCC-2998 colon,0.567 µM
same,TGI,EKVX NSCLC,> 100 µM
same,TGI,SNB-19 CNS,> 57.6 µM
same,TGI,SK-OV-3 ovarian,0.932 µM
same,TGI,SF-539 CNS,0.756 µM
same,TGI,SF-268 CNS,31.4 µM
same,TGI,SF-295 CNS,0.693 µM
same,TGI,RXF 393 renal,0.859 µM
same,TGI,UACC-257 melanoma,> 100 µM
same,TGI,SK-MEL-2 melanoma,> 100 µM
same,TGI,U251 CNS,3.95 µM
same,TGI,COLO 205 colon,0.823 µM
same,TGI,DLD-1 colon,> 100 µM
same,TGI,HCT-15 colon,> 90 µM
same,TGI,OVCAR-4 ovarian,4.59 µM
same,TGI,OVCAR-3 ovarian,0.0575 µM
same,TGI,SNB-78 CNS,> 100 µM
same,TGI,NCI-H522 lung,0.275 µM
same,TGI,786-0 renal,30.1 µM
same,TGI,RPMI-8226 leukemia,> 100 µM
same,TGI,KM20L2 colon,0.515 µM
same,TGI,HOP-92 NSCLC,> 100 µM
same,TGI,MOLT-4 leukemia,> 100 µM
same,TGI,XF 498 CNS,7.24 µM
same,TGI,M19-MEL melanoma,> 100 µM
same,TGI,HL-60(TB) leukemia,2.23 µM
same,TGI,A498 renal,4.58 µM
same,TGI,HT29 colon,> 100 µM
same,TGI,IGROV1 ovarian,> 47.5 µM
same,TGI,K-562 leukemia,> 100 µM
same,TGI,SR leukemia,> 100 µM
same,TGI,RXF-631 renal,> 100 µM
N#CC(c1ccc(Cl)cc1)c1cccc(Cl)n1 (centres undefined),TGI,SN12C renal,> 100 µM
same,TGI,KM12 colon,> 100 µM
same,TGI,UACC-62 melanoma,> 100 µM
same,TGI,A549 NSCLC,> 100 µM
same,TGI,OVCAR-5 ovarian,> 100 µM
same,TGI,M14 melanoma,> 100 µM
same,TGI,NCI-H460 lung,> 100 µM
same,TGI,TK-10 renal,> 100 µM
same,TGI,UO-31 renal,> 100 µM
same,TGI,SW-620 colon,> 100 µM
same,TGI,OVCAR-8 ovarian,> 100 µM
same,TGI,HOP-62 NSCLC,> 100 µM
same,TGI,NCI-H23 lung,> 100 µM
same,TGI,SK-MEL-28 melanoma,> 100 µM
same,TGI,CAKI-1 renal,> 100 µM
same,TGI,NCI-H226 lung,> 100 µM
same,TGI,CCRF-CEM leukemia,> 100 µM
same,TGI,ACHN renal,> 100 µM
same,TGI,LXFL 529 NSCLC,> 100 µM
same,TGI,HCC-2998 colon,> 100 µM
same,TGI,EKVX NSCLC,> 100 µM
same,TGI,SNB-19 CNS,> 100 µM
same,TGI,SK-OV-3 ovarian,> 100 µM
same,TGI,SF-268 CNS,> 100 µM
same,TGI,SF-295 CNS,> 100 µM
same,TGI,UACC-257 melanoma,> 100 µM
same,TGI,SK-MEL-2 melanoma,> 100 µM
same,TGI,U251 CNS,> 100 µM
same,TGI,COLO 205 colon,> 100 µM
same,TGI,DLD-1 colon,> 100 µM
same,TGI,OVCAR-4 ovarian,> 100 µM
same,TGI,OVCAR-3 ovarian,> 100 µM
same,TGI,SNB-78 CNS,> 100 µM
same,TGI,NCI-H522 lung,> 100 µM
same,TGI,786-0 renal,> 100 µM
same,TGI,RPMI-8226 leukemia,> 100 µM
same,TGI,KM20L2 colon,> 100 µM
same,TGI,HOP-92 NSCLC,74.8 µM
same,TGI,SNB-75 CNS,84.3 µM
same,TGI,MOLT-4 leukemia,> 100 µM
same,TGI,XF 498 CNS,78.7 µM
same,TGI,M19-MEL melanoma,> 100 µM
same,TGI,HL-60(TB) leukemia,> 100 µM
same,TGI,A498 renal,> 100 µM
same,TGI,HT29 colon,> 100 µM
same,TGI,MALME-3M melanoma,> 100 µM
same,TGI,K-562 leukemia,> 100 µM
same,TGI,SR leukemia,> 100 µM
